Laboratory results from US12077503B2, “Substituted cyclic amides and their use as herbicides” (FMC CORPORATION, priority 2015, dated 2024).

Columns and labels:
Type in all cases: in vivo
[1] = test system: barnyardgrass (Echinochloa crus-galli); assay: Test G Pre-Emergence Protocol; conditions: Echinochloa crus-galli, pre-emergence, 312 h, evaluated after 13 days; for pest or weed control at 15.625 g/ha: 15.625 g ai/ha; for pest or weed control at 15.625 g/ha / pest or weed control at 250 g/ha: read-out: Barnyardgrass damage rating (100=total damage to plant; 0=no damage to plant); for pest or weed control at 62.5 g/ha: 62.5 g ai/ha, 100=total damage to plant, 0=no damage to plant, read-out: Barnyardgrass damage rating; for pest or weed control at 250 g/ha: 250 g ai/ha
In short: (§1)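 Scores are visual damage ratings from 0 (no damage) to 100 (total plant kill), taken 13 days after treatment. Compound was sprayed one day post-sowing at 15.625, 62.5 or 250 g/ha in 50:50 acetone/water with 0.5% Tween 20.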

[2] = test system: velvetleaf (Abutilon theophrasti); assay: Test G Pre-Emergence Protocol; conditions: Abutilon theophrasti, pre-emergence, 312 h, evaluated after 13 days; for pest or weed control at 15.625 g/ha: 15.625 g ai/ha; for pest or weed control at 15.625 g/ha / pest or weed control at 250 g/ha: read-out: Velvetleaf damage rating (100=total damage to plant; 0=no damage to plant); for pest or weed control at 62.5 g/ha: 62.5 g ai/ha, 100=total damage to plant, 0=no damage to plant, read-out: Velvetleaf damage rating; for pest or weed control at 250 g/ha: 250 g ai/ha
In short: as §1

[3] = test system: ivy-leaved morning glory (Ipomoea hederacea); assay: Test G Pre-Emergence Protocol; conditions: Ipomoea, pre-emergence, 312 h, evaluated after 13 days; for pest or weed control at 15.625 g/ha: 15.625 g ai/ha; for pest or weed control at 15.625 g/ha / pest or weed control at 250 g/ha: read-out: Morningglory, Ivy-leaved damage rating (100=total damage to plant; 0=no damage to plant); for pest or weed control at 62.5 g/ha: 62.5 g ai/ha, 100=total damage to plant, 0=no damage to plant, read-out: Morningglory, Ivy-leaved damage rating; for pest or weed control at 250 g/ha: 250 g ai/ha
In short: as §1

[4] = test system: giant foxtail (Setaria faberi); assay: Test G Pre-Emergence Protocol; conditions: Setaria faberi, pre-emergence, 312 h, evaluated after 13 days; for pest or weed control at 15.625 g/ha: 15.625 g ai/ha; for pest or weed control at 15.625 g/ha / pest or weed control at 250 g/ha: read-out: Foxtail, Giant damage rating (100=total damage to plant; 0=no damage to plant); for pest or weed control at 62.5 g/ha: 62.5 g ai/ha, 100=total damage to plant, 0=no damage to plant, read-out: Foxtail, Giant damage rating; for pest or weed control at 250 g/ha: 250 g ai/ha
In short: as §1

[5] = test system: redroot pigweed (Amaranthus retroflexus); assay: Test G Pre-Emergence Protocol; conditions: Amaranthus retroflexus, pre-emergence, 312 h, evaluated after 13 days; for pest or weed control at 15.625 g/ha: 15.625 g ai/ha; for pest or weed control at 15.625 g/ha / pest or weed control at 250 g/ha: read-out: Pigweed, Redroot damage rating (100=total damage to plant; 0=no damage to plant); for pest or weed control at 62.5 g/ha: 62.5 g ai/ha, 100=total damage to plant, 0=no damage to plant, read-out: Pigweed, Redroot damage rating; for pest or weed control at 250 g/ha: 250 g ai/ha
In short: as §1

corn (Zea mays) [6] = assay: Test G Pre-Emergence Protocol; conditions: Zea mays, pre-emergence, 312 h, evaluated after 13 days; for plant injury at 15.625 g/ha: 15.625 g ai/ha; for plant injury at 15.625 g/ha / plant injury at 250 g/ha: read-out: Corn damage rating (100=total damage to plant; 0=no damage to plant); for plant injury at 62.5 g/ha: 62.5 g ai/ha, 100=total damage to plant, 0=no damage to plant, read-out: Corn damage rating; for plant injury at 250 g/ha: 250 g ai/ha
In short: as §1

[7] = test system: barnyardgrass (Echinochloa crus-galli); assay: Test G Post-Emergence Protocol; conditions: Echinochloa crus-galli, post-emergence, 312 h, read-out: Barnyardgrass damage rating; for pest or weed control at 15.625 g/ha: 15.625 g ai/ha, evaluated after 13 days (100=total damage to plant; 0=no damage to plant); for pest or weed control at 62.5 g/ha: 62.5 g ai/ha; for pest or weed control at 62.5 g/ha / pest or weed control at 250 g/ha: evaluated after 13 days, 100=total damage to plant, 0=no damage to plant; for pest or weed control at 250 g/ha: 250 g ai/ha
In short: (§2)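 Values are percent visual injury at 13 days after treatment (0 none, 100 total). Treatment was a post-emergence spray at 15.625, 62.5 or 250 g/ha on 8-day-old pot plants kept at 24/16 °C.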

[8] = test system: velvetleaf (Abutilon theophrasti); assay: Test G Post-Emergence Protocol; conditions: Abutilon theophrasti, post-emergence, 312 h, read-out: Velvetleaf damage rating; for pest or weed control at 15.625 g/ha: 15.625 g ai/ha, evaluated after 13 days (100=total damage to plant; 0=no damage to plant); for pest or weed control at 62.5 g/ha: 62.5 g ai/ha; for pest or weed control at 62.5 g/ha / pest or weed control at 250 g/ha: evaluated after 13 days, 100=total damage to plant, 0=no damage to plant; for pest or weed control at 250 g/ha: 250 g ai/ha
In short: as §2

[9] = test system: ivy-leaved morning glory (Ipomoea hederacea); assay: Test G Post-Emergence Protocol; conditions: Ipomoea, post-emergence, 312 h, read-out: Morningglory, Ivy-leaved damage rating; for pest or weed control at 15.625 g/ha: 15.625 g ai/ha, evaluated after 13 days (100=total damage to plant; 0=no damage to plant); for pest or weed control at 62.5 g/ha: 62.5 g ai/ha; for pest or weed control at 62.5 g/ha / pest or weed control at 250 g/ha: evaluated after 13 days, 100=total damage to plant, 0=no damage to plant; for pest or weed control at 250 g/ha: 250 g ai/ha
In short: as §2

[10] = test system: giant foxtail (Setaria faberi); assay: Test G Post-Emergence Protocol; conditions: Setaria faberi, post-emergence, 312 h, read-out: Foxtail, Giant damage rating; for pest or weed control at 15.625 g/ha: 15.625 g ai/ha, evaluated after 13 days (100=total damage to plant; 0=no damage to plant); for pest or weed control at 62.5 g/ha: 62.5 g ai/ha; for pest or weed control at 62.5 g/ha / pest or weed control at 250 g/ha: evaluated after 13 days, 100=total damage to plant, 0=no damage to plant; for pest or weed control at 250 g/ha: 250 g ai/ha
In short: as §2

[11] = test system: redroot pigweed (Amaranthus retroflexus); assay: Test G Post-Emergence Protocol; conditions: Amaranthus retroflexus, post-emergence, 312 h, read-out: Pigweed, Redroot damage rating; for pest or weed control at 15.625 g/ha: 15.625 g ai/ha, evaluated after 13 days (100=total damage to plant; 0=no damage to plant); for pest or weed control at 62.5 g/ha: 62.5 g ai/ha; for pest or weed control at 62.5 g/ha / pest or weed control at 250 g/ha: evaluated after 13 days, 100=total damage to plant, 0=no damage to plant; for pest or weed control at 250 g/ha: 250 g ai/ha
In short: as §2

corn (Zea mays) [12] = assay: Test G Post-Emergence Protocol; conditions: Zea mays, post-emergence, 312 h, read-out: Corn damage rating; for plant injury at 15.625 g/ha: 15.625 g ai/ha, evaluated after 13 days (100=total damage to plant; 0=no damage to plant); for plant injury at 62.5 g/ha: 62.5 g ai/ha; for plant injury at 62.5 g/ha / plant injury at 250 g/ha: evaluated after 13 days, 100=total damage to plant, 0=no damage to plant; for plant injury at 250 g/ha: 250 g ai/ha
In short: as §2

Row | Compound | pest or weed control at 15.625 g/ha [1] | pest or weed control at 62.5 g/ha [1] | pest or weed control at 250 g/ha [1] | pest or weed control at 15.625 g/ha [2] | pest or weed control at 62.5 g/ha [2] | pest or weed control at 250 g/ha [2] | pest or weed control at 15.625 g/ha [3] | pest or weed control at 62.5 g/ha [3] | pest or weed control at 250 g/ha [3] | pest or weed control at 15.625 g/ha [4] | pest or weed control at 62.5 g/ha [4] | pest or weed control at 250 g/ha [4] | pest or weed control at 15.625 g/ha [5] | pest or weed control at 62.5 g/ha [5] | pest or weed control at 250 g/ha [5] | plant injury at 15.625 g/ha (corn (Zea mays) [6]) | plant injury at 62.5 g/ha (corn (Zea mays) [6]) | plant injury at 250 g/ha (corn (Zea mays) [6]) | pest or weed control at 15.625 g/ha [7] | pest or weed control at 62.5 g/ha [7] | other results
1 | CN1C[C@H](c2cccc(C(F)(F)F)c2)[C@@H](C(=O)Nc2cccc3c2S(=O)(=O)CC3)C1=O (racemic) [Compound 1738] | 0% | 0% | 70% | 0% | 0% | 0% | 0% | 0% | 0% | 0% | 0% | 70% | 0% | 0% | 0% | 0% | 0% | 0% | 0% | 40% | pest or weed control at 250 g/ha [7]: 80%; pest or weed control at 15.625 g/ha [8]: 0%; pest or weed control at 62.5 g/ha [8]: 10%; pest or weed control at 250 g/ha [8]: 10%; pest or weed control at 15.625 g/ha [9]: 0%; pest or weed control at 62.5 g/ha [9]: 0%; pest or weed control at 250 g/ha [9]: 0%; pest or weed control at 15.625 g/ha [10]: 20%; pest or weed control at 62.5 g/ha [10]: 40%; pest or weed control at 250 g/ha [10]: 70%; pest or weed control at 15.625 g/ha [11]: 20%; pest or weed control at 62.5 g/ha [11]: 10%; pest or weed control at 250 g/ha [11]: 10%; plant injury at 15.625 g/ha (corn (Zea mays) [12]): 0%; plant injury at 62.5 g/ha (corn (Zea mays) [12]): 0%; plant injury at 250 g/ha (corn (Zea mays) [12]): 0%
2 | Cc1ccc([C@H]2CN(C)C(=O)[C@@H]2C(=O)Nc2cccc3c2S(=O)(=O)CC3)cc1 (racemic) [Compound 1739] | 0% | 0% | 0% | 0% | 0% | 0% | 0% | 0% | 0% | 0% | 0% | 0% | 0% | 0% | 0% | 0% | 0% | 0% | 0% | 0% | pest or weed control at 250 g/ha [7]: 0%; pest or weed control at 15.625 g/ha [8]: 0%; pest or weed control at 62.5 g/ha [8]: 0%; pest or weed control at 250 g/ha [8]: 0%; pest or weed control at 15.625 g/ha [9]: 0%; pest or weed control at 62.5 g/ha [9]: 0%; pest or weed control at 250 g/ha [9]: 0%; pest or weed control at 15.625 g/ha [10]: 0%; pest or weed control at 62.5 g/ha [10]: 0%; pest or weed control at 250 g/ha [10]: 0%; pest or weed control at 15.625 g/ha [11]: 0%; pest or weed control at 62.5 g/ha [11]: 0%; pest or weed control at 250 g/ha [11]: 0%; plant injury at 15.625 g/ha (corn (Zea mays) [12]): 0%; plant injury at 62.5 g/ha (corn (Zea mays) [12]): 0%; plant injury at 250 g/ha (corn (Zea mays) [12]): 0%
3 | CN1C[C@H](c2ccc(C(F)F)cc2)[C@@H](C(=O)Nc2cnccc2C(F)(F)F)C1=O (racemic) [Compound 1743] | 30% | 40% | 80% | 10% | 50% | 80% | 0% | 60% | 70% | 30% | 90% | 90% | 20% | 60% | 80% | 30% | 20% | 80% | 0% | 0% | pest or weed control at 250 g/ha [7]: 80%; pest or weed control at 15.625 g/ha [8]: 0%; pest or weed control at 62.5 g/ha [8]: 0%; pest or weed control at 250 g/ha [8]: 50%; pest or weed control at 15.625 g/ha [9]: 0%; pest or weed control at 62.5 g/ha [9]: 0%; pest or weed control at 250 g/ha [9]: 30%; pest or weed control at 15.625 g/ha [10]: 20%; pest or weed control at 62.5 g/ha [10]: 70%; pest or weed control at 15.625 g/ha [11]: 0%; pest or weed control at 62.5 g/ha [11]: 0%; pest or weed control at 250 g/ha [11]: 50%; plant injury at 15.625 g/ha (corn (Zea mays) [12]): 0%; plant injury at 62.5 g/ha (corn (Zea mays) [12]): 0%; plant injury at 250 g/ha (corn (Zea mays) [12]): 60%
